Test results published in patent US20090227606A1, “Methods for Preventing or Treating Acute and Chronic Pain” (priority 2006, published 2009).
“Also recorded” adds a separate entry of the source.

What was measured:
GLT-1 mRNA = experiment: Real Time RT-PCR of cultured astrocytes, GLT-1 mRNA; type: cell-based, rat
Protocol: (§1) After approximately 14 days (2 days after subplating into plates, DIV 14) astrocytes had formed a confluent monolayer. […] Phase contrast microscopy was then carried out in order to assess the morphology of cells after the various treatments. Length of astrocyte processes was quantified by measuring all processes in 2-3 phase contrast images/group by an independent observer, blinded to the treatment groups using Image J v1.34s (National Institutes of Health, Bethesda, Md.).
Total RNA was isolated from astrocyte cultures using the Qiagen RNeasy mini-kit (Qiagen Inc., Valencia, Calif.) according to the manufacturer's protocol for isolation of total RNA from animal cells. Reverse transcription (RT) was carried out using the high-capacity cDNA archive kit (Applied Biosystems, Foster City, Calif.) according to the vendor's protocol. Real-time RT-PCR reactions were carried out in a total reaction volume of 25 μL containing a final concentration of 1.5 U Platinum Taq DNA polymerase (Invitrogen Corporation, Carlsbad, Calif.); 20 mM Tris HCl (pH 8.4); 50 mM KCl; 3 mM MgCl2; 200 μM dGTP, dCTP, and dATP; 400 μM dUTP and 1 U of UDG (uracyl DNA glycosylase); 900 nM of forward and reverse primers; 300 nM Taqman probe; and 5 μL of cDNA (50 ng) from the RT step. The iCycler™ Multicolor Real-Time PCR detection system (Bio-Rad Laboratories, Hercules, Calif.) was used to quantify PCR product. The fluorescence and threshold values (CT) obtained were used to compare the relative amount of target mRNA in experimental groups to those of controls using the 2^−ΔΔC^T method (Livak, K. J. and T. D. Schmittgen. 2001. Methods 25:402-408). Each experiment was run twice and samples were run in duplicate. For each sample, the mean CT value for the control gene (GAPDH) was then subtracted from the mean CT value for the gene of interest (GLT-1, GLAST) to obtain a ΔCT value. The ΔCT values for the control group (untreated) were then averaged and subtracted from the ΔCT for the experimental groups to obtain the ΔΔCT. The relative fold change from control was then expressed by calculation of 2^−ΔΔC^T for each sample and the results are expressed as the group mean fold change±SEM.

GLAST [1] = experiment: Western blot of cultured astrocytes, GLAST protein; type: cell-based, rat
Protocol: as §1
Cells were scraped into PBS containing a protease inhibitor cocktail (1:1000, Sigma Chemical Co., St. Louis, Mo.) and then lysed by sonication in 5 one-second pulses. The samples were stored at −80° C. until use. Total protein was determined using the Lowry method (DC assay, Bio-Rad, Hercules, Calif.). Forty micrograms of protein (diluted in sample buffer and boiled) and standard protein markers were subjected to SDS/7.5% polyacrylamide gel electrophoresis and transferred to polyvinylidene difluoride (PVDF) membranes. Nonspecific binding was blocked by incubation with 5% milk/PBS-Tween at room temperature for 1 hour followed by incubation overnight at 4° C. with rabbit anti-GLT-1 (1:500) or guinea pig anti-GLAST (1:2500). The following day, blots were washed and incubated for 1 hour at room temperature with goat anti-rabbit HRP-conjugated secondary (1:3000) or goat anti-guinea pig HRP-conjugated secondary antibody (1:5000) and visualized with enhanced chemiluminescence (ECL). Images were obtained using the Typhoon Imaging System (Amersham-GE Healthcare, Piscataway, N.J.). Finally, blots were incubated for 15 minutes in stripping buffer and reprobed with a monoclonal mouse anti-β-actin antibody (1:10,000) as a loading control. Densitometric analysis was performed using ImageQuant 5.2 (Molecular Dynamics, GE Healthcare, Piscataway, N.J.).

cultured astrocytes = experiment: Reversibility of astrocyte phenotype change after 7 day washout; type: cell-based, rat; settings: 7 days treatment (high dose), then 7 day washout in control media
Protocol: In order to ensure that the morphological effects of propentofylline on astrocytes were due to specific pharmacological effects and not due to toxicity, experiments were performed to determine if the phenotype change observed was reversible.

GLT-1 = experiment: Western blot of ipsilateral lumbar spinal cord, GLT-1 protein; type: in vivo, rat; settings: day 12 post-transection
Protocol: (§2) Tissue was collected from 4-5 rats/group on postoperative days 4 or 12. In order to obtain both mRNA and protein from the same tissue sample, the L5 region of the spinal cord (ipsilateral to the injury), was isolated and placed in PBS supplemented with protease inhibitor cocktail (1:1000, Sigma Chemical Co., St. Louis, Mo.) and RNase inhibitor (0.75 U/μL Ambion, Austin, Tex.). Samples were sonicated in five one-second bursts at half-maximal power, centrifuged at 6500 rpm for 15 minutes at 4° C. Protein-containing supernatants were collected and stored at −80° C. until further processing by Western blot analysis. The pellet was treated with TRIzol reagent (Invitrogen, Carlsbad, Calif.) for the extraction of total RNA according to the manufacturer's specifications.
(§3) Protein obtained from L5 lumbar spinal cord was quantified using the Lowry method (DC assay, Bio-Rad, Hercules, Calif.). Forty micrograms of protein and standard protein markers were subjected to SDS polyacrylamide gel electrophoresis (7.5% gel, Bio-Rad, Hercules, Calif.) and id transferred to polyvinylidene difluoride (PVDF, Bio-Rad, Hercules, Calif.) filters. Nonspecific binding was blocked by incubation with 5% milk/PBS-T at room temperature for 1 hour followed by incubation overnight at 4° C. with monoclonal guinea pig anti-GLT-1 or guinea pig anti-GLAST (1:2500, Chemicon). […]

GLAST [2] = experiment: Western blot of ipsilateral lumbar spinal cord, GLAST protein; type: in vivo, rat; settings: day 12 post-transection
Protocol: as §2, §3

astrocytic activation = settings: DeLeo et al. 1987; cited from earlier work

CCCn1cnc2c1c(=O)n(CCCCC(C)=O)c(=O)n2C [propentofylline]
increase in GLT-1 mRNA (GLT-1 mRNA; day 3, high dose): 3 fold | induction of GLT-1 mRNA (GLT-1 mRNA; day 7, high dose): 20 fold | GLT-1 mRNA level, in words (GLT-1 mRNA; propentofylline 10, 100, 1000 μM, db-cAMP 250 μM, relative to GAPDH): enhancement of GLT-1 and GLAST mRNA levels in a dose-dependent manner; also recorded: dose-dependently induced GLT-1 and GLAST at the mRNA level | GLAST protein level, in words (GLAST [1]; 3 or 7 days, normalized to β-actin): dose-dependently increased levels of GLAST protein | increase in GLAST protein (GLAST [1]; 7-day treatment, 1000 μM): 6 fold | reversibility of morphological change (cultured astrocytes): reversal was more complete in propentofylline-treated cells | GLT-1 protein compared to L5 transection alone (GLT-1): reversed with propentofylline treatment; also recorded: significantly elevated | GLAST protein (GLAST [2]): further decreased by propentofylline treatment; also recorded: slight decrease | astrocytic activation (astrocytic activation): attenuate astrocytic activation
